# Tests used:
# Assay in all cases: radiometric filter-binding kinase assay
# [1] = target: CLK2 (human) (UniProt P49760)
# [2] = target: CHEK1 (human) (UniProt O14757)
# [3] = target: PIM3 (human) (UniProt Q86V86)
# [4] = target: SRPK1 (human) (UniProt Q96SB4)
# [5] = tested on: SGK1 (human), O00141 [S422D]
# [6] = target: MAPKAPK2 (human) (UniProt P49137)
# [7] = target: PAK7 (human) (UniProt Q9P286)
# [8] = target: DYRK1A (human) (UniProt Q13627)
# [9] = target: MAP3K7 TAB1 (human) (UniProt Q15750+O43318)
# [10] = target: PLK1 (human) (UniProt P53350)
# PLK1 (human), sequence (P53350 whole entry, looked up): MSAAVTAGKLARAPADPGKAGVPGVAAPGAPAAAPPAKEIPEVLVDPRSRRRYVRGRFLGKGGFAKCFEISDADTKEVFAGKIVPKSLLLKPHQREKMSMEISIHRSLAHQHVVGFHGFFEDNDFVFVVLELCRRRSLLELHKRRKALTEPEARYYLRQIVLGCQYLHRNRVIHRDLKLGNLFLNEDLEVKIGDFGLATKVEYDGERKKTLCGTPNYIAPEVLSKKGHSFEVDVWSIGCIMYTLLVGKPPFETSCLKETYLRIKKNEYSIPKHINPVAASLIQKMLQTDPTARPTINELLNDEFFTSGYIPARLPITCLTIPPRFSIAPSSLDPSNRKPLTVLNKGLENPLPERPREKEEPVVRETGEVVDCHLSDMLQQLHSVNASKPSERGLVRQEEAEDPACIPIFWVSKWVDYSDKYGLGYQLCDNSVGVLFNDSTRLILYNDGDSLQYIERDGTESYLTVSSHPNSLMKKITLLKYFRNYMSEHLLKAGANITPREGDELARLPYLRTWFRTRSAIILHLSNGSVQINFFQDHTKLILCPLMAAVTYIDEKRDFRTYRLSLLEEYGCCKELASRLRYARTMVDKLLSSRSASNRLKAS
# [11] = target: NEK2 (human) (UniProt P51955)
# [12] = target: PAK4 (human) (UniProt O96013)
# [13] = target: PKN2 (human) (UniProt Q16513)
# [14] = target: NEK6 (human) (UniProt Q9HC98)
# [15] = target: EPHA4 (human) (UniProt P54764)
# [16] = target: MAPK3 (human) (UniProt P27361)
# [17] = target: MAPK12 (human) (UniProt P53778)
# [18] = target: RPS6KA3 KD1 KD2 (human) (UniProt P51812)
# RPS6KA3 KD1 KD2 (human), sequence (P51812 whole entry, looked up): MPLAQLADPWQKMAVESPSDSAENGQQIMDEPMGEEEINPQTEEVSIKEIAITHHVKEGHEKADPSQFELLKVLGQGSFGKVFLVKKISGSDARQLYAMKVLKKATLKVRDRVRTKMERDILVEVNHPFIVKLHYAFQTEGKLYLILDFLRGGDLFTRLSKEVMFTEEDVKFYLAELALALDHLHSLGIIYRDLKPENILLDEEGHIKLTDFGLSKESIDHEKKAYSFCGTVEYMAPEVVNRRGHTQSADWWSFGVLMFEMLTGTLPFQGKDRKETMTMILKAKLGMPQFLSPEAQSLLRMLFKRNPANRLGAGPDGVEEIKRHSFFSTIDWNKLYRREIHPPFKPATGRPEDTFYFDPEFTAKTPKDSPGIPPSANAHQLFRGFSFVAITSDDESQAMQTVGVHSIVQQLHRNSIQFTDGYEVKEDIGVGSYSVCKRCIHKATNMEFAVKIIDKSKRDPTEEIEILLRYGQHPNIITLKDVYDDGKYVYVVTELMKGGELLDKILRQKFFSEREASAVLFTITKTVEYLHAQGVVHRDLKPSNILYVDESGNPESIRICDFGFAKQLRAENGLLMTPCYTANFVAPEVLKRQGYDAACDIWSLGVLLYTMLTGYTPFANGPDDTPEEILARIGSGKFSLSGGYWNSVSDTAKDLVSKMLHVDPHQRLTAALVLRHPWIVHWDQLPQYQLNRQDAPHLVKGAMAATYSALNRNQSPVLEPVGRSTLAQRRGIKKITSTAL
# [19] = target: IGF1R (human) (UniProt P08069)
# IGF1R (human), sequence (P08069 whole entry, looked up): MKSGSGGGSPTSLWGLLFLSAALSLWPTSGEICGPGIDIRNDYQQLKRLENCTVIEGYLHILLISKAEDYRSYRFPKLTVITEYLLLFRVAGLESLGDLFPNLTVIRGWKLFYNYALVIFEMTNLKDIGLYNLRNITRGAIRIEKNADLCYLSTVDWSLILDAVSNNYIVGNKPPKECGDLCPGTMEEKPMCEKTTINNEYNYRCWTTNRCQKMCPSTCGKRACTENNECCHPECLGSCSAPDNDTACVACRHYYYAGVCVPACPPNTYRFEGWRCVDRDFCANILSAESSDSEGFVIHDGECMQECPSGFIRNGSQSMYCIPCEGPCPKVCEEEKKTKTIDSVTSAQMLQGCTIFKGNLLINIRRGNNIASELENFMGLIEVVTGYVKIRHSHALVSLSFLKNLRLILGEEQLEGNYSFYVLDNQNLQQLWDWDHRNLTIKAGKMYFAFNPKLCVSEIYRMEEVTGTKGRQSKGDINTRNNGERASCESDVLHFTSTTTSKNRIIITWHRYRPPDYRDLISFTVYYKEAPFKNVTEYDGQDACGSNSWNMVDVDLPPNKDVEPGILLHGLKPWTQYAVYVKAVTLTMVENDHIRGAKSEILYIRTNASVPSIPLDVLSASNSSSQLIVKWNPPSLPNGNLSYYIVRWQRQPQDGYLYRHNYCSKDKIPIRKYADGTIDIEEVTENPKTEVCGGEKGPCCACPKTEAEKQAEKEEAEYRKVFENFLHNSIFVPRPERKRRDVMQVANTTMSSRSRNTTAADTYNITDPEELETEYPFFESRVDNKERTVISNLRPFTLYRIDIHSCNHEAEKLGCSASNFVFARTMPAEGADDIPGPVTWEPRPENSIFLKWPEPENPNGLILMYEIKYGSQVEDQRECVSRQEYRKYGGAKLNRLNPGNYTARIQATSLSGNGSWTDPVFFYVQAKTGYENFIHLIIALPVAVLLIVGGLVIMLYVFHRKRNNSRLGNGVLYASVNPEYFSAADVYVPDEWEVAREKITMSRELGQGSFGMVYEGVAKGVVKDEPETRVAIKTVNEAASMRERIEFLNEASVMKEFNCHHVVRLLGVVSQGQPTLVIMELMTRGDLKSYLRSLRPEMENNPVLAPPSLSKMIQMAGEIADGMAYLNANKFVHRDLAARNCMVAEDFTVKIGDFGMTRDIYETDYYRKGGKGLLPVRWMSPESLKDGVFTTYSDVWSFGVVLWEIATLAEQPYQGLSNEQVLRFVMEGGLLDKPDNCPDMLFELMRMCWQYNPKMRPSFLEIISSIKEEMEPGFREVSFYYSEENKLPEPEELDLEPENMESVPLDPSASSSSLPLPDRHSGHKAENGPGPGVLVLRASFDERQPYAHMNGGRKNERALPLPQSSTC
# [20] = target: CSNK1D (human) (UniProt P48730)
# [21] = target: PAK6 (human) (UniProt Q9NQU5)
# [22] = target: PIM2 (human) (UniProt Q9P1W9)
# PIM2 (human), sequence (Q9P1W9 whole entry, looked up): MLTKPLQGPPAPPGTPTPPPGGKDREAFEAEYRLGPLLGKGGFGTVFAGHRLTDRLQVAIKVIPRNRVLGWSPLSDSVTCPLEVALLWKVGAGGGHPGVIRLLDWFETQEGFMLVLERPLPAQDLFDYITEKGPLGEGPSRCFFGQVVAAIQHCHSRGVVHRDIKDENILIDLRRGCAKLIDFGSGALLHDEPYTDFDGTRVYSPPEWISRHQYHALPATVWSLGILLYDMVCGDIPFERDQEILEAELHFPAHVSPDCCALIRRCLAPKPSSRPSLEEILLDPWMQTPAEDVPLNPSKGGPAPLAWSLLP
# [23] = target: RPS6KA5 KD1 KD2 (human) (UniProt O75582)
# [24] = tested on: PAK2 (human), Q13177 [T402E]
# [25] = target: CAMKK2 (human) (UniProt Q96RR4)
# [26] = target: RIPK2 (human) (UniProt O43353)
# RIPK2 (human), sequence (O43353 whole entry, looked up): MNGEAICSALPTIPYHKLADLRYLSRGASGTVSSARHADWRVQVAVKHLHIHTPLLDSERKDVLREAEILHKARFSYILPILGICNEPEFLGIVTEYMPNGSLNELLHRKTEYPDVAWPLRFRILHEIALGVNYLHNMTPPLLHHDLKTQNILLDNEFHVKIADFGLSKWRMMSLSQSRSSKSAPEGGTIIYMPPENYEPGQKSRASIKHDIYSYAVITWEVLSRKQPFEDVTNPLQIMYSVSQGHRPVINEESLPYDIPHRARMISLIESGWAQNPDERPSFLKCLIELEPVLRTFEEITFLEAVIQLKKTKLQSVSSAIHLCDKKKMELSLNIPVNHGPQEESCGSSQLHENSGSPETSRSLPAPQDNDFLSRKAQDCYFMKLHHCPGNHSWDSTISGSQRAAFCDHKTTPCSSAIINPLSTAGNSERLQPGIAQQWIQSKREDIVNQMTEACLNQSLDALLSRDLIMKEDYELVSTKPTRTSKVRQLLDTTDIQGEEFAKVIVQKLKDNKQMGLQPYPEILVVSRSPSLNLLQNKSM
# [27] = target: MARK2 (human) (UniProt Q7KZI7)
# [28] = target: IKBKE (human) (UniProt Q14164)
# [29] = target: MAPK15 (human) (UniProt Q8TD08)
# [30] = target: HIPK3 (human) (UniProt Q9H422)
# [31] = tested on: AKT2 (human), P31751 [S474D]
# [32] = target: IRAK4 (human) (UniProt Q9NWZ3)
# IRAK4 (human), sequence (Q9NWZ3 whole entry, looked up): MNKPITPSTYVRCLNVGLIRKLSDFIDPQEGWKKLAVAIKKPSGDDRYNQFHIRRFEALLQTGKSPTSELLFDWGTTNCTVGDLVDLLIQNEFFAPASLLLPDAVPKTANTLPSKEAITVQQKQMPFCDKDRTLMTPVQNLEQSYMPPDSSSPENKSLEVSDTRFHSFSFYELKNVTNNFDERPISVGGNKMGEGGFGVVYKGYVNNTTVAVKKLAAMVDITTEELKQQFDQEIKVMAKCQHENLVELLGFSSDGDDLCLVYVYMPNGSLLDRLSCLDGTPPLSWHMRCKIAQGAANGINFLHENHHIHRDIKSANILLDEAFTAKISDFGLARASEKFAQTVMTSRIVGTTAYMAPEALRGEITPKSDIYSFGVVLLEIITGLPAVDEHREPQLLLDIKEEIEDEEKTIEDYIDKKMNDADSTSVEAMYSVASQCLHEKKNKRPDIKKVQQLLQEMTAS
# [33] = target: MST4 (human) (UniProt Q9P289)
# MST4 (human), sequence (Q9P289 whole entry, looked up): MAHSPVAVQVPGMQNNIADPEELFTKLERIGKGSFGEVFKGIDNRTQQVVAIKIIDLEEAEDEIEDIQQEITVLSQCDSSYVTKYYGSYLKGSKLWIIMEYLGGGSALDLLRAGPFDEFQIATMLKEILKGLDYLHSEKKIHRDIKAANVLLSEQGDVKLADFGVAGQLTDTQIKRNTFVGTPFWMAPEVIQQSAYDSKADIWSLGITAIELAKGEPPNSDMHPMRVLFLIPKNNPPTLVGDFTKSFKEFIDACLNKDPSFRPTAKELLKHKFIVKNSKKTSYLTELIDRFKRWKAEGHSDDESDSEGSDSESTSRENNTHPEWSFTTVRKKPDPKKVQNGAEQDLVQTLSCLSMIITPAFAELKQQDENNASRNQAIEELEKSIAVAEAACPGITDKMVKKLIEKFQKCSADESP
# [34] = target: MAPK14 (human) (UniProt Q16539)
# [35] = target: MARK1 (human) (UniProt Q9P0L2)
# CLK2 (human), sequence (P49760 whole entry, looked up): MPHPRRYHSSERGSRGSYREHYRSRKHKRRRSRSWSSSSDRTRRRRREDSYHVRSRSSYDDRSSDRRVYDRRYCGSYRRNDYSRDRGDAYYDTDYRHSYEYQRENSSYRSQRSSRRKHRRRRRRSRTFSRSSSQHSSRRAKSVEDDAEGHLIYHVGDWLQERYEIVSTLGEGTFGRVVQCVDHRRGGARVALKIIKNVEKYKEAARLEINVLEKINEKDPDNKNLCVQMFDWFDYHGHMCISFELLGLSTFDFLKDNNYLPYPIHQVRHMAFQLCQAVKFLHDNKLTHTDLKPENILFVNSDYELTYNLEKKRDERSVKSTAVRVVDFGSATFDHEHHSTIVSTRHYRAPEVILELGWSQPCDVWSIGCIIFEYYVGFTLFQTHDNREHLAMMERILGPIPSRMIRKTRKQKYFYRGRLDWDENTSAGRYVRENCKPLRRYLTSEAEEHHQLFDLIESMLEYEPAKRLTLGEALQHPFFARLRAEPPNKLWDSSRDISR
compound,measurement,setting,value
N#Cc1c(C2CCNCC2)cc(-c2c(O)cccc2OCC2CC2)nc1N,residual activity,[1]; compound 1.0 µM,43%
same,residual activity,[1]; compound 10.0 µM,7%
same,residual activity,[2]; compound 1.0 µM,95%
same,residual activity,[2]; compound 10.0 µM,92%
same,residual activity,[3]; compound 1.0 µM,56%
same,residual activity,[3]; compound 10.0 µM,27%
same,residual activity,[4]; compound 1.0 µM,92%
same,residual activity,[4]; compound 10.0 µM,101%
same,residual activity,[5]; compound 1.0 µM,96%
same,residual activity,[5]; compound 10.0 µM,69%
same,residual activity,[6]; compound 1.0 µM,115%
same,residual activity,[6]; compound 10.0 µM,95%
same,residual activity,[7]; compound 1.0 µM,84%
same,residual activity,[7]; compound 10.0 µM,75%
same,residual activity,[8]; compound 1.0 µM,99%
same,residual activity,[8]; compound 10.0 µM,80%
same,residual activity,[9]; compound 1.0 µM,73%
same,residual activity,[9]; compound 10.0 µM,39%
same,residual activity,[10]; compound 1.0 µM,83%
same,residual activity,[10]; compound 10.0 µM,87%
same,residual activity,[11]; compound 1.0 µM,85%
same,residual activity,[11]; compound 10.0 µM,94%
same,residual activity,[12]; compound 1.0 µM,112%
same,residual activity,[12]; compound 10.0 µM,69%
same,residual activity,[13]; compound 1.0 µM,94%
same,residual activity,[13]; compound 10.0 µM,53%
same,residual activity,[14]; compound 1.0 µM,99%
same,residual activity,[14]; compound 10.0 µM,101%
same,residual activity,[15]; compound 1.0 µM,107%
same,residual activity,[15]; compound 10.0 µM,84%
same,residual activity,[16]; compound 1.0 µM,85%
same,residual activity,[16]; compound 10.0 µM,80%
same,residual activity,[17]; compound 1.0 µM,94%
same,residual activity,[17]; compound 10.0 µM,72%
same,residual activity,[18]; compound 1.0 µM,39%
same,residual activity,[18]; compound 10.0 µM,11%
same,residual activity,[19]; compound 1.0 µM,86%
same,residual activity,[19]; compound 10.0 µM,35%
same,residual activity,[20]; compound 1.0 µM,86%
same,residual activity,[20]; compound 10.0 µM,78%
same,residual activity,[21]; compound 1.0 µM,89%
same,residual activity,[21]; compound 10.0 µM,83%
same,residual activity,[22]; compound 1.0 µM,34%
same,residual activity,[22]; compound 10.0 µM,12%
same,residual activity,[23]; compound 1.0 µM,105%
same,residual activity,[23]; compound 10.0 µM,55%
same,residual activity,[24]; compound 1.0 µM,83%
same,residual activity,[24]; compound 10.0 µM,78%
same,residual activity,[25]; compound 1.0 µM,106%
same,residual activity,[25]; compound 10.0 µM,57%
same,residual activity,[26]; compound 1.0 µM,80%
same,residual activity,[26]; compound 10.0 µM,57%
same,residual activity,[27]; compound 1.0 µM,89%
same,residual activity,[27]; compound 10.0 µM,96%
same,residual activity,[28]; compound 1.0 µM,87%
same,residual activity,[28]; compound 10.0 µM,96%
same,residual activity,[29]; compound 1.0 µM,59%
same,residual activity,[29]; compound 10.0 µM,9%
same,residual activity,[30]; compound 1.0 µM,129%
same,residual activity,[30]; compound 10.0 µM,79%
same,residual activity,[31]; compound 1.0 µM,85%
same,residual activity,[31]; compound 10.0 µM,62%
same,residual activity,[32]; compound 1.0 µM,124%
same,residual activity,[32]; compound 10.0 µM,70%
same,residual activity,[33]; compound 1.0 µM,113%
same,residual activity,[33]; compound 10.0 µM,102%
same,residual activity,[34]; compound 1.0 µM,102%
same,residual activity,[34]; compound 10.0 µM,91%
same,residual activity,[35]; compound 1.0 µM,88%
same,residual activity,[35]; compound 10.0 µM,95%

# — the kinase profiling compilation of Christmann-Franck et al. (2016)
